Results published in patent publication US6399759B1, “Ant proteases and methods of inhibition” (University of Georgia Research Foundation, Inc., priority 1999, dated 2002).
“And” between values parts separate entries of the source, which are not always exact repeats. Equal entries are not always repeated. Where a SMILES comes first, the peptide text is derived from it. [ ]: non-standard residue; d: D form. The star is where a group is joined. Sta = CC(C)C[C@H](N)[C@@H](O)CC(=O)O; Isovaleryl = CC(C)CC(=O)*

Assays:
[1] = biological target: T1, Soli C1 (Solenopsis invicta, UniProt Q7SIG2); format: biochemical
T1 construct: Fourth instar larvae were extracted in a 1:10 (weight/volume) ratio of 20 mM Tris-HCl pH 7.4; from tissue; host or cells: whole Solenopsis invicta 4th instar larvae (buffer extract, acetone precipitation, Q Sepharose peak III, Mono Q, Superdex 75)

[2] = tested on: Soli C2; experiment: Inhibition of amidolytic activity by synthetic inhibitors; format: biochemical, Solenopsis invicta
[3] = tested on: Soli E1; experiment: as above; format: biochemical, Solenopsis invicta
[4] = tested on: Soli E2; experiment: as above; format: biochemical, Solenopsis invicta
[5] = biological target: T1, Soli C1; experiment: Inhibition of amidolytic activity by naturally occurring protease inhibitors; format: biochemical; conditions: 10 minutes incubation at 25° C. in 50 mM Tris-HCl, 100 mM NaCl, pH 7.4
Procedure: (§1) Enzyme Assay—Generally, the amidolytic activities of each proteinase were measured with the substrates MeOSuc-Ala-Ala-Pro-Val-pNA (SEQ ID NO:8) and N-Suc-Ala-Ala-Pro-Phe-pNA (SEQ ID NO:7) in 0.05 M Tris-HCl and 100 mM NaCl pH 7.4 (assay buffer). Release of the pNA group was assayed by monitoring the optical density of the test solution at […]. Enzyme inhibition assays by protein inhibitors were conducted in the same assay buffer using an inhibitor concentration ranging from 0.02-50 nM with a 10 minute preincubation time and with the final enzyme concentration being 1.0 nM. All kinetic studies with substrates and inhibitors were performed at the optimum pH of the individual proteinases, utilizing the following buffers: 150 mM NaCl, 50 mM Tris-HCl pH 8.0 (E1); 150 mM NaCl, 50 mM CHES pH 9.5 (E2 and C2); and 150 mM NaCl, 50 mM CAPS pH 10.0 (C1).

[6] = tested on: Soli C2; experiment: as above; format: biochemical, Solenopsis invicta; conditions: 10 minutes incubation at 25° C. in 50 mM Tris-HCl, 100 mM NaCl, pH 7.4
Procedure: as §1

[7] = tested on: Soli E1; experiment: as above; format: biochemical, Solenopsis invicta; conditions: 10 minutes incubation at 25° C. in 50 mM Tris-HCl, 100 mM NaCl, pH 7.4
Procedure: as §1

[8] = tested on: Soli E2; experiment: as above; format: biochemical, Solenopsis invicta; conditions: 10 minutes incubation at 25° C. in 50 mM Tris-HCl, 100 mM NaCl, pH 7.4
Procedure: as §1

[9] = pH optimum of the purified proteinases; format: biochemical, Solenopsis invicta; conditions: Vmax of substrate hydrolysis, room temperature, pH range 3.0 to 12.0
Procedure: (§2) pH analysis—The determination of pH optimum and stability for each enzyme was performed using a Universal Phosphate Buffer system, which is a buffer made from boric acid and phosphoric acid titrated with sodium hydroxide such that the ionic strength is the same at any pH. Briefly, equal volumes of a solution of 80 mM boric acid and a solution of 80 mM phosphoric acid were combined, and 200 mM sodium hydroxide was added to bring the mixture to the desired pH.

[10] = format: physicochemical, Solenopsis invicta
Procedure: as §2

[11] = Isoelectrofocusing (IEF) of the purified proteinases; format: physicochemical, Solenopsis invicta; conditions: IEF gels pH 3-10, Serva Test Mix 9 standards
Procedure: IEF—Isoelectrofocusing of the purified proteinases was performed on precast isoelectric focusing gels (pH 3-10) obtained under the trade designation […] PRECOTES (Cresent Chemical Co., Inc., Hauppauge, N.Y.). Sample preparations and isoelectrofocusing were carried out following instructions provided by Pharmacia and using the Pharmacia Flatbed Electrophoresis Unit.
IEF—Based on Serva Test Mix 9 IEF standards (Cresent Chemical Co., Inc.), the proteinases migrated to the following pI's; Soli E1, 10.0; Soli E2 (3 isoforms), 6.9, 8.3, 8.5; Soli C1, 4.7; and Soli C2, 4.2.

T1 sequence (Q7SIG2 whole entry): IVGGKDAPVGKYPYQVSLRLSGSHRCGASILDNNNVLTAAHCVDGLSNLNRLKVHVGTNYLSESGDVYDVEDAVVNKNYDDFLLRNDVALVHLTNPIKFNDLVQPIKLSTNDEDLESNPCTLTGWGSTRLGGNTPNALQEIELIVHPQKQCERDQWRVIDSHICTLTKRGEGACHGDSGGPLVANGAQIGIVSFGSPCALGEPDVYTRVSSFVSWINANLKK

Compound | Inhibition of Soli C1 by class-specific proteinase inhibitors (in words) [1] | Inhibition of Soli C2 by class-specific proteinase inhibitors (in words) [2] | Inhibition of Soli E1 by class-specific proteinase inhibitors (in words) [3] | pH optimum [9] | Stability of enzyme activity [10] | pI [11] | further results
CC(C)C[C@H](NC(=O)[C@H]1O[C@@H]1C(=O)O)C(=O)NCCCCN=C(N)N (relative stereo) [E-64, trans-epoxysuccinyl-L-leucylamido-(4-guanidino)butane] | not | not | not |  |  |  | 
O=c1oc(Cl)c(Cl)c2ccccc12 [DCIC, 3,4-dichloroisocoumarin] | not Soli C1 or Soli C2, except after long incubation periods | not Soli C1 or Soli C2, except after long incubation periods | inhibited |  |  |  | Inhibition of Soli E2 by class-specific proteinase inhibitors (in words) [4]: inhibited
O=C(O)CN(CCN(CC(=O)O)CC(=O)O)CC(=O)O [EDTA, ethylenediaminetetraacetate·2H2O] | not | not | not |  |  |  | 
CC(C)CC(=O)N[C@H](C(=O)N[C@H](C(=O)N[C@@H](CC(C)C)[C@@H](O)CC(=O)N[C@@H](C)C(=O)N[C@@H](CC(C)C)[C@@H](O)CC(=O)O)C(C)C)C(C)C [Pepstatin] (Isovaleryl-VV[Sta]A[Sta]-OH) | not | not | not |  |  |  | 
Canadian Goose OM Domain III: Domain III of Canadian goose ovomucoid |  |  |  |  |  |  | IC50 [5]: > 50 nM; IC50 [6]: > 50 nM; IC50 [7]: 1.51 nM; IC50 [8]: 27.3 nM
Domestic Goose OM Domain III: Domain III of domestic goose ovomucoid |  |  |  |  |  |  | IC50 [5]: > 50 nM; IC50 [6]: > 50 nM; IC50 [7]: > 50 nM; IC50 [8]: 5.58 nM
Soli C1: chymotrypsin-like serine proteinase, about 25 kDa, from S. invicta 4th instar larvae (IVGGDAPVGKYPYQVSLRLSG) |  |  |  | 9.0-10.5 | stable for several days | 4.7 | 
Soli C2: chymotrypsin-like serine proteinase, about 28 kDa, from S. invicta 4th instar larvae (IVGGEPAPGGAYPFIVSLQV) |  |  |  | 9.0 | lost their activities fairly quickly over all pHs | 4.2 | pH at which most stable [10]: 8.0
Soli E1: elastase-like serine proteinase, about 23 kDa, from S. invicta 4th instar larvae (IVGGQPATPGEFPHQGSLRV) |  |  |  | 8.0 | lost their activities fairly quickly over all pHs | 10.0 | pH at which most stable [10]: 7.0
Soli E2: elastase-like serine proteinase, about 24 kDa, from S. invicta 4th instar larvae (IVGGQDAAPGEFPHQGSLRLRGSHI) |  |  |  | 8.5-10 | lost their activities fairly quickly over all pHs | 6.9 and 8.3 and 8.5 | pH at which most stable [10]: 8.5
α1-PI: α-1-Proteinase Inhibitor |  |  |  |  |  |  | IC50 [5]: 0.338 nM; IC50 [6]: 0.271 nM; IC50 [7]: 1.2 nM; IC50 [8]: 0.604 nM
